Reference: patent US20050025847A1, “Microbicidal compositions and method of use” (Program for Appropriate Technology in Health, priority 2003, published 2005)

What was measured:
HIV = test: inhibition of HIV infectivity; format: cell-based
lactobacilli = test: effect on lactobacilli; format: cell-based
Excerpt: (§1) A preferred microbicidal agent according to the present invention is bisabolol. In particular, alpha-bisabolol (levomenol) is a preferred microbicidal agent. Bisabolol is a naturally occurring unsaturated monocyclic sesquiterpene alcohol. Alpha-bisabolol is used in a wide range or cosmetic formulations as a skin conditioning agent at concentrations ranging from approximately 0.001% in lipstick to approximately 1% in underarm deodorants. Bisabolol has been used for cosmetic purposes in India and worldwide in skin, oropharyngeal, nasal and vaginal products such as douches up to concentrations of approximately 5%, but has not been used in the prevention or treatment of STIs and/or common vaginal diseases. Bisabolol is the main active principle of chamomile (Matricaria chamomilla) and up to approximately 50% of the essential oil of chamomile consists of alpha-bisabolol.

[1] = oral and dermal toxicity, genotoxicity, reproductive/developmental toxicity, sensitization and photosensitization studies; conditions: oral, dermal, sensitization, photosensitization studies
Excerpt: as §1

Trichophyton rubrum = conditions: isolates of Trichophyton rubrum; cited from earlier work
[2] = test system: Trichophyton mentagrophytes; conditions: isolates of Trichophyton mentagrophytes; cited from earlier work
Epidermophyton floccosum = conditions: isolates of Epidermophyton floccosum; cited from earlier work
Microsporum canis = conditions: isolates of Microsporum canis; cited from earlier work
Candida albicans = conditions: isolates of Candida albicans; cited from earlier work

| IC50, inhibition of HIV infectivity (HIV; mixed with the virus and cells) [µg/mL] | IC50, inhibition of HIV infectivity (HIV; mixed with the virus for 5 minutes before washing) [µg/mL] | effect on lactobacilli (lactobacilli; concentration 2 mg/ml) | effect on lactobacilli (lactobacilli; concentration 10 mg/ml) | SMILES | anti-HIV activity (HIV) | inactivation of HIV (HIV; washed away after short-term treatment) | toxicity [1] | fungicidal activity in vitro (Trichophyton rubrum) | fungicidal activity in vitro [2] | fungicidal activity in vitro (Epidermophyton floccosum) | fungicidal activity in vitro (Microsporum canis) | fungicidal activity in vitro (Candida albicans) |
| --- | --- | --- | --- | --- | --- | --- | --- | --- | --- | --- | --- | --- |
| 0.6 | 1 | no effect | no effect | CC(C)=CCCC(C)(O)C1CC=C(C)CC1 (stereo not drawn) [Bisabolol, 3-Cyclohexene-1-methanol, alpha,4-dimethyl-alpha-(4-methyl-3-pentenyl)] | very high anti-HIV activity | inactivates HIV | little toxicity | – | – | – | – | – |
| – | – | – | – | Cc1cc(C2CCCCC2)n(O)c(=O)c1.NCCO [Ciclopirox Olamine, 6-Cyclohexyl-1-hydroxy-4-methyl-2-(1H)-pyridone ethanolamine salt] | – | – | – | exhibits fungicidal activity | exhibits fungicidal activity | exhibits fungicidal activity | exhibits fungicidal activity | exhibits fungicidal activity |
